Results from US20240141374A1, “ON DEMAND EXPRESSION OF EXOGENOUS FACTORS IN LYMPHOCYTES” (priority 0001, published 2024).

Assays:
HIV NL43-GFP [1] = assay: HIV NL43-GFP infection of CD8-depleted, CD3/CD28-stimulated PBMC transduced with lentiviral vector encoding 3BNC117 (Example 3); assay type: cell-based; conditions: day six, FIG. 6
Description: Method: On day 0, PBMC were depleted of CD8+ T cells and then stimulated with TransAct (CD3/CD28 beads) (MiltenyiBiotec). On day 1, the PBMC were transduced with a lentiviral vectors expressing the broadly neutralizing antibody (bNAb) against HIV (SEQ ID NO:4; AGT112). The components of the vectors are described in Table 2. The AGT112 vector (SEQ ID NO: 4) contains a CMV promoter (SEQ ID NO: 13) that drives expression of a 3BNC117 antibody sequence that contains an IL-2 secretory sequence (SEQ ID NO: 74 (3BNC117 heavy variable chain (with IL-2 secretory sequence)) and SEQ ID NO: 75 (3BNC117 light variable chain (with IL-2 secretory sequence)). The IL-2 secretory sequence is SEQ ID NO: 11.
On day two (2), the PBMC were then infected with HIV NL43-GFP. On day three, cells were washed three times. On day six, HIV-infected GFP positive cells were measured. This protocol is shown in FIG. 5 but here LV-3BNC117 was substituted for LV-VRC01.

[2] = test system: HIV recombinant strain NL43 that expresses GFP; assay: HIV NL43-GFP infection of primary CD4 T cells transduced with AGT111 at various MOI (Example 7); assay type: cell-based; conditions: 200 nM saquinavir
Experimental: Method: CD4 T cells were separated by negative selection and stimulated for 1 day with TransAct (CD3/CD28 beads) (Miltenyi Biotec) plus IL-2 (30 U/mL) (Thermo Fisher Scientific) and then transduced with lentivirus vector AGT111 (SEQ ID NO: 2) at various MOI.
One day later, cells were infected with 1 MOI of HIV recombinant strain NL43 that expresses GFP. […] As a control, HIV infected cells were treated with 200 nM saquinavir. At the end of the culture, cells were collected and analyzed by flow cytometry for GFP expression and with an APC anti-CD4 antibody. If the CD4 cell expresses GFP, it was infected by HIV.

HIV NL43-GFP [3] = assay: HIV NL43-GFP infection of PBMC transduced with sCD4 lentiviral vectors (Example 4); assay type: cell-based; conditions: columns NL43+sCD4 / NL43-sCD4-Ig / NL43-Saquinavir
Description: Method: On day 0, PBMC were depleted of CD8+ T cell and then stimulated with TransAct (CD3/CD28 beads) (MiltenyiBiotec). On day 1, PBMC were transduced with lentiviral vectors expressing sCD4 (SEQ ID NO: 8 (AGT116) and SEQ ID NO: 10 (AGT117)).
The components of the vectors are described in Table 2. The AGT116 vector (SEQ ID NO: 8) contains a sCD4 sequence (SEQ ID NO: 7) and an EF-1α promoter (SEQ ID NO: 14) upstream of the sCD4 sequence. The AGT117 vector (SEQ ID NO: 10) contains a sCD4-IgG1 Fc sequence (SEQ ID NO: 9) and an EF-1α promoter (SEQ ID NO: 14) upstream of the sCD4-IgG1 Fc sequence.
On day 2, the PBMC were infected with HIV NL43-GFP. On day 3, the cells were washed three times. Cells were then […]. On day 6, HIV-infected GFP positive cells were measured.

[4] = test system: HIV recombinant strain NL43 that expresses GFP; assay: HIV NL43-GFP infection of primary CD4 T cells transduced with AGT103 or AGT118 (Example 17); assay type: cell-based
Description: Method: CD4 T cells were separated by negative selection and stimulated for 1 day with TransAct (CD3/CD28 beads) (Miltenyi Biotec) plus IL-2 (30 U/mL) (Thermo Fisher Scientific) and then transduced with lentivirus AGT103 (SEQ ID NO: 78) or AGT118 (SEQ ID NO: 80) at a MOI of 5. The AGT103 vector (SEQ ID NO: 78) contains an EF-1α promoter (SEQ ID NO: 14) that drives expression of the miR30-CCR5/miR21-Vif/mir185-Tat microRNA cluster sequence (SEQ ID NO: 65) (miR30-CCR5/miR21-Vif/miR185-Tat microRNA cluster sequence). The miR30-CCR5 sequence is SEQ ID NO: 62. The miR21-Vif sequence is SEQ ID NO: 63. The miR185-Tat sequence is SEQ ID NO: 64. The AGT118 vector (SEQ ID NO: 80) contains an EF-1α promoter (SEQ ID NO: 14) that drives expression of sCD4(D1+D2)-IgG1 Fc (SEQ ID NO: 9) and the miR30-CCR5/miR21-Vif/miR185-Tat microRNA cluster sequence (SEQ ID NO: 65).
One day later, cells were infected with 1 MOI of HIV recombinant strain NL43 that expresses GFP. After 24 hours, CD3/CD28 beads, lentivirus and HIV were removed by washing 3 times with PBS and cultured in RPMI 1640 medium (Thermo Fisher Scientific) containing 10% FBS (Gemini Bio) and 1% Pen-Strep (Thermo Fisher Scientific) with IL-2 (30 U/mL) in a 37° C. incubator at 5% C02 for 7 days with medium supplementation as needed. At the end of the culture, cells were collected and analyzed by flow cytometry. […]

[5] = test system: HIV Gag-specific CD4 T cells; assay: Antibody (IgG Fc) expression by HIV Gag-specific CD4 T cells after peptide stimulation (Example 5); assay type: cell-based, human; conditions: for cells positive for IgG Fc: MOI 5
Experimental: Method: To measure antibody expression by HIV Gag-specific CD4 T cells, HIV positive human peripheral blood mononuclear cells (PBMCs) were separated with Ficoll-Paque PLUS (GE Healthcare, Cat: 17-1440-02). Separated PBMCs (1×10^7) were stimulated with PepMix™ HIV (GAG) Ultra (Cat: PM-HIV-GAG, JPT Peptide Technologies) in 1 mL medium in a 24-well plate for 18 hours. CD8 T, γδ, NK, and B cells were depleted with PE labeled specific antibodies and anti-PE microbeads. The negatively selected cells were cultured at 2×10^6/mL in TexMACS GMP medium (Cat: 170-076-309, Miltenyi Biotec) containing IL7 (170-076-111, Miltenyi Biotec), IL15 (170-076-114, Miltenyi Biotec) and saquinavir (Cat: 4658, NIH AIDS Reagent Program). The lentivirus vector AGT111 (SEQ ID NO: 2) encoding anti-HIV antibody VRC01 or AGT112 (SEQ ID NO: 4) encoding anti-HIV antibody 3BNC117 was added 24 hours later at a multiplicity of infection (MOI) of 5.
Fresh medium containing IL7, IL15, and saquinavir was added every 2-3 days during cell expansion. The starting concentration of IL7 and IL15 was 10 ng/mL. On day 12-16, 2-3×10^6 cells were collected for peptide stimulation. The intracellular expression of IFNγ and IgG Fc was detected with a PE anti-IFNγ antibody and an APC anti-IgG1 Fc antibody (Biolegend).

Molecule | GFP positive cells (HIV NL43-GFP [1]; NY025 donor) [%] | GFP positive cells (HIV NL43-GFP [1]; NY026 donor) [%] | percentage of GFP positive cells ([2]; day 5) [%] | percentage of GFP positive cells ([2]; day 7) [%] | percentage of GFP positive cells ([2]; day 9) [%] | percent of GFP positive cells (HIV NL43-GFP [3]; FIG. 8A bottom row) [%] | percent of GFP positive cells (HIV NL43-GFP [3]; FIG. 8B bottom row) [%] | cells HIV positive ([4]; primary CD4 T cells, MOI of 5) [%] | decrease in HIV infection ([4]; vs control treated cells) [%] | increase in fluorescence intensity of IgG relative to DMSO treated cells ([5]; Gag PepMix vs DMSO) | cells positive for IgG Fc ([5]; stimulation with Gag PepMix on day 12) [%] | cells positive for IgG Fc ([5]; treated with DMSO (no peptide)) [%]
CC(C)(C)NC(=O)[C@@H]1C[C@@H]2CCCC[C@@H]2CN1C[C@@H](O)[C@H](Cc1ccccc1)NC(=O)[C@H](CC(N)=O)NC(=O)c1ccc2ccccc2n1 [Saquinavir, saquinavir] | 0.025 | 2.43E-3 | 0.19 | 0.22 | 0.24 | 0.017 | 0.026 | – | – | – | – | –
AGT103: Vector encoding inhibitory RNA sequences targeting CCR5 and HIV Vif/Tat with EF-1α promoter (SEQ ID NO: 78) (nucleic acid, misc_feature 1..1469 AGT103) DNA: CCGGTGCCTAGAGAAGGTGGCGCGGGGTAAACTGGGAAAGTGATGTCGTGTACTGGCTCCGCCTTTTTCCCGAGGGTGGGGGAGAACCGTATATAAGTGCAGTAGTCGCCGTGAACGTTCTTTTTCGCAACGGGTTTGCCGCCAGAACACAGGTAAGTGCCGTGTGTGGTTCCCGCGGGCCTGGCCTCTTTACGGGTTATGGCCCTTGCGTGCCTTGAATTACTTCCACGCCCCTGGCTGCAGTACGTGATTCTTGATCCCGAGCTTCGGGTTGGAAGTGGGTGGGAGAGTTCGAGGCCTTGCGCTTAAGGAGCCCCTTCGCCTCGTGCTTGAGTTGAGGCCTGGCCTGGGCGCTGGGGCCGCCGCGTGCGAATCTGGTGGCACCTTCGCGCCTGTCTCGCTGCTTTCGATAAGTCTCTAGCCATTTAAAATTTTTGATGACCTGCTGCGACGCTTTTTTTCTGGCAAGATAGTCTTGTAAATGCGGGCCAAGATCTGCACACTGGTATTTCGGTTTTTGGGGCCGCGGGCGGCGACGGGGCCCGTGCGTCCCAGCGCACATGTTCGGCGAGGCGGGGCCTGCGAGCGCGGCCACCGAGAATCGGACGGGGGTAGTCTCAAGCTGGCCGGCCTGCTCTGGTGCCTGGCCTCGCGCCGCCGTGTATCGCCCCGCCCTGGGCGGCAAGGCTGGCCCGGTCGGCACCAGTTGCGTGAGCGGAAAGATGGCCGCTTCCCGGCCCTGCTGCAGGGAGCTCAAAATGGAGGACGCGGCGCTCGGGAGAGCGGGCGGGTGAGTCACCCACACAAAGGAAAAGGGCCTTTCCGTCCTCAGCCGTCGCTTCATGTGACTCCACGGAGTACCGGGCGCCGTCCAGGCACCTCGATTAGTTCTCGAGCTTTTGGAGTACGTCGTCTTTAGGTTGGGGGGAGGGGTTTTATGCGATGGAGTTTCCCCACACTGAGTGGGTGGAGACTGAAGTTAGGCCAGCTTGGCACTTGATGTAATTCTCCTTGGAATTTGCCCTTTTTGAGTTTGGATCTTGGTTCATTCTCAAGCCTCAGACAGTGGTTCAAAGTTTTTTTCTTCCATTTCAGGTGTCGTGATGTACAAGGTATATTGCTGTTGACAGTGAGCGACTGTAAACTGAGCTTGCTCTACTGTGAAGCCACAGATGGGTAGAGCAAGCACAGTTTACCGCTGCCTACTGCCTCGGACTTCAAGGGGCTTCCCGGGCATCTCCATGGCTGTACCACCTTGTCGGGGGATGTGTACTTCTGAACTTGTGTTGAATCTCATGGAGTTCAGAAGAACACATCCGCACTGACATTTTGGTATCTTTCATCTGACCAGCTAGCGGGCCTGGCTCGAGCAGGGGGCGAGGGATTCCGCTTCTTCCTGCCATAGCGTGGTCCCCTCCCCTATGGCAGGCAGAAGCGGCACCTTCCCTCCCAATGACCGCGTCTTCGTC | – | – | – | – | – | – | – | 0.86 | 75.6 | – | – | –
3BNC117: human IgG1 monoclonal antibody targeting the CD4 binding site on HIV gp160; expressed in cells from vector AGT112 (protein, constant regions lack entries; misc_feature 1..441 3BNC117 Heavy Variable Chain (with IL-2 secretory signal); misc_feature 1..369 3BNC117 Light Variable Chain (with IL-2 secretory signal), expressed in cells from vector AGT112) chain 1: MYRMQLLSCIALSLALVTQVQLLQSGAAVTKPGASVRVSCEASGYNIRDYFIHWWRQAPGQGLQWVGWINPKTGQPNNPRQFQGRVSLTRHASWDFDTFSFYMDLKALRSDDTAVYFCARQRSDYWDFDVWGSGTQVTVSSASTKGP chain 2: MYRMQLLSCIALSLALVTDIQMTQSPSSLSASVGDTVTITCQANGYLNWYQQRRGKAPKLLIYDGSKLERGVPSRFSGRRWGQEYNLTINNLQPEDIATYFCQVYEFVVPGTRLDLKRTVAAP | 1.79 | 0.30 | – | – | – | – | – | – | – | approximately 10 fold | 1.58 | 0.13
